Test results as given in PubChem BioAssay AID2060910 (Molecular Pharmacology Branch, DTP, NCI, 2025).
Several values for one entry are separate records, joined by “and”; a condition that tells them apart may be missing. Identical values can stand only once. Blank lines part the entries; values can stand above or below the molecule they belong to.

System: 242566-281-R-J2-PDC complex spheroid viability
Assay: Anticancer human tumor 242566-281-R-J2-PDC patient-derived pancreatic carcinoma cell line growth inhibition [RAS]
Settings: for viability, T/C: stronger effect = lower value
In short: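 Tumour cells grown as complex spheroids with HUVEC endothelial cells and mesenchymal stem cells, treated with RAS pathway inhibitor combinations. Each agent spans half-log steps from near clinical Cmax, or 10 microM where Cmax is unknown.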

[1] = curve of first compound, second compound 0.000949 µM
[2] = curve of first compound, second compound 0.003 µM
[3] = curve of first compound, second compound 0.00949 µM
[4] = curve of first compound, second compound 0.03 µM
[5] = curve of first compound, second compound 0.0949 µM
[6] = curve of first compound, second compound 0.3 µM
[7] = second compound 0.000949 µM, first compound 0.0316 µM
[8] = second compound 0.000949 µM, first compound 0.1 µM
[9] = second compound 0.000949 µM, first compound 0.316 µM
[10] = second compound 0.000949 µM, first compound 1 µM
[11] = second compound 0.000949 µM, first compound 3.16 µM
[12] = second compound 0.000949 µM, first compound 10 µM
[13] = second compound 0.003 µM, first compound 0.0316 µM
[14] = second compound 0.003 µM, first compound 0.1 µM
[15] = second compound 0.003 µM, first compound 0.316 µM
[16] = second compound 0.003 µM, first compound 1 µM
[17] = second compound 0.003 µM, first compound 3.16 µM
[18] = second compound 0.003 µM, first compound 10 µM
[19] = second compound 0.00949 µM, first compound 0.0316 µM
[20] = second compound 0.00949 µM, first compound 0.1 µM
[21] = second compound 0.00949 µM, first compound 0.316 µM
[22] = second compound 0.00949 µM, first compound 1 µM
[23] = second compound 0.00949 µM, first compound 3.16 µM
[24] = second compound 0.00949 µM, first compound 10 µM
[25] = second compound 0.03 µM, first compound 0.0316 µM
[26] = second compound 0.03 µM, first compound 0.1 µM
[27] = second compound 0.03 µM, first compound 0.316 µM
[28] = second compound 0.03 µM, first compound 1 µM
[29] = second compound 0.03 µM, first compound 3.16 µM
[30] = second compound 0.03 µM, first compound 10 µM
[31] = second compound 0.0949 µM, first compound 0.0316 µM
[32] = second compound 0.0949 µM, first compound 0.1 µM
[33] = second compound 0.0949 µM, first compound 0.316 µM
[34] = second compound 0.0949 µM, first compound 1 µM
[35] = second compound 0.0949 µM, first compound 3.16 µM
[36] = second compound 0.0949 µM, first compound 10 µM
[37] = second compound 0.3 µM, first compound 0.0316 µM
[38] = second compound 0.3 µM, first compound 0.1 µM
[39] = second compound 0.3 µM, first compound 0.316 µM
[40] = second compound 0.3 µM, first compound 1 µM
[41] = second compound 0.3 µM, first compound 3.16 µM
[42] = second compound 0.3 µM, first compound 10 µM
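Note: spheroids exposed to compound for 7 days before readout.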
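Throughout, for viability, T/C: 100% = DMSO vehicle control wells.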

Structure (SMILES): NC1c2ccccc2OC12CCN(c1cnc3c(N4CCCc5ncccc54)n[nH]c3n1)CC2 (stereo not given)
- viability, T/C (compound 1 µM): 68.9% [middle of 4 runs]
- viability, T/C (compound 10 µM): 51.8% [middle of 4 runs]
- IC50 (curve of compound): > 10000 nM and 3300 nM and 3400 nM

Structure (SMILES): NC1c2ccccc2OC12CCN(c1cnc3c(N4CCCc5ncccc54)n[nH]c3n1)CC2 (stereo not given) + CCn1c(-c2cc(N3CCN(C)CC3)cnc2C(C)OC)c2c3cc(ccc31)-c1csc(n1)CC(NC(=O)C1CC1C)C(=O)N1CCCC(N1)C(=O)OCC(C)(C)C2
- IC50 [1]: 50.8 nM
- IC50 [2]: < 31.6 nM
- IC50 [3]: < 31.6 nM
- IC50 [4]: < 31.6 nM
- IC50 [5]: < 31.6 nM
- IC50 [6]: < 31.6 nM
- viability, T/C [7]: 58.2%
- viability, T/C [8]: 40.6%
- viability, T/C [9]: 20.6%
- viability, T/C [10]: 24.9%
- viability, T/C [11]: 21.2%
- viability, T/C [12]: 8.53%
- viability, T/C [13]: 42.9%
- viability, T/C [14]: 26.4%
- viability, T/C [15]: 18.9%
- viability, T/C [16]: 21.3%
- viability, T/C [17]: 18.4%
- viability, T/C [18]: 6.57%
- viability, T/C [19]: 31.6%
- viability, T/C [20]: 19.2%
- viability, T/C [21]: 18.1%
- viability, T/C [22]: 15.8%
- viability, T/C [23]: 13.4%
- viability, T/C [24]: 7.23%
- viability, T/C [25]: 23.1%
- viability, T/C [26]: 18.1%
- viability, T/C [27]: 15.7%
- viability, T/C [28]: 15.2%
- viability, T/C [29]: 12.8%
- viability, T/C [30]: 7.77%
- viability, T/C [31]: 20.1%
- viability, T/C [32]: 16.8%
- viability, T/C [33]: 14.8%
- viability, T/C [34]: 13.6%
- viability, T/C [35]: 11.8%
- viability, T/C [36]: 7.6%
- viability, T/C [37]: 15.6%
- viability, T/C [38]: 15.4%
- viability, T/C [39]: 14.4%
- viability, T/C [40]: 10.6%
- viability, T/C [41]: 9.17%
- viability, T/C [42]: 4.89%

Structure (SMILES): CC1(C)CCC(Nc2ncc(C(F)(F)F)c(-c3c[nH]c4c(P(C)(C)=O)c(C#N)ccc34)n2)CN1 (stereo not given)
- viability, T/C (compound 0.03 µM): 110% [middle of 4 runs]
- IC50 (curve of compound): > 300 nM

Structure (SMILES): C[C@@H](NC(=O)c1ncnc(N)c1Cl)c1ncc(C(=O)Nc2cc(C(F)(F)F)c(Cl)cn2)s1
- viability, T/C (compound 0.0316 µM): 116% [middle of 4 runs]
- viability, T/C (compound 0.1 µM): 114% [middle of 4 runs]
- viability, T/C (compound 0.316 µM): 110% [middle of 4 runs]
- viability, T/C (compound 1 µM): 118% [middle of 4 runs]
- viability, T/C (compound 3.16 µM): 106% [middle of 4 runs]
- IC50 (curve of compound): > 10000 nM

Second part, led by results:

- IC50 [1]: 2620 nM
- IC50 [2]: 2040 nM
- IC50 [3]: < 31.6 nM
- IC50 [4]: < 31.6 nM
- IC50 [5]: < 31.6 nM
- IC50 [6]: < 31.6 nM
Structure (SMILES): CCC(CC)c1cc(NC2CCC(N)C2)n2nccc2n1 (stereo not given) + CCn1c(-c2cc(N3CCN(C)CC3)cnc2C(C)OC)c2c3cc(ccc31)-c1csc(n1)CC(NC(=O)C1CC1C)C(=O)N1CCCC(N1)C(=O)OCC(C)(C)C2
- viability, T/C [7]: 90.9%
- viability, T/C [8]: 88.3%
- viability, T/C [9]: 77.8%
- viability, T/C [10]: 90.1%
- viability, T/C [11]: 42.9%
- viability, T/C [12]: 1.28%
- viability, T/C [13]: 80.1%
- viability, T/C [14]: 74.2%
- viability, T/C [15]: 65.4%
- viability, T/C [16]: 74.9%
- viability, T/C [17]: 35.5%
- viability, T/C [18]: 1.04%
- viability, T/C [19]: 50.9%
- viability, T/C [20]: 39.1%
- viability, T/C [21]: 45.9%
- viability, T/C [22]: 45.8%
- viability, T/C [23]: 18.8%
- viability, T/C [24]: 1.43%
- viability, T/C [25]: 32.2%
- viability, T/C [26]: 29.8%
- viability, T/C [27]: 27.9%
- viability, T/C [28]: 29.8%
- viability, T/C [29]: 7.89%
- viability, T/C [30]: 2.28%
- viability, T/C [31]: 22.3%
- viability, T/C [32]: 21%
- viability, T/C [33]: 23.2%
- viability, T/C [34]: 24.5%
- viability, T/C [35]: 8.03%
- viability, T/C [36]: 1.49%
- viability, T/C [37]: 20.7%
- viability, T/C [38]: 19.7%
- viability, T/C [39]: 20.5%
- viability, T/C [40]: 20.9%
- viability, T/C [41]: 6.77%
- viability, T/C [42]: 1.47%

- IC50 (curve of compound): > 10000 nM and 7540 nM and 8690 nM
Structure (SMILES): CC1(O)CCCC1n1c(=O)c(C(F)F)cc2cnc(NC3CCN(S(C)(=O)=O)CC3)nc21 (stereo not given)
- viability, T/C (compound 1 µM): 106% [middle of 4 runs]
- viability, T/C (compound 3.16 µM): 105% and 103% (2×) and 123%

- IC50 (curve of first compound, second compound 0.0316 µM): 86 nM
- IC50 (curve of first compound, second compound 0.1 µM): 201 nM
- IC50 (curve of first compound, second compound 0.316 µM): 180 nM
- IC50 (curve of first compound, second compound 1 µM): 10.2 nM
- IC50 (curve of first compound, second compound 3.16 µM): 3.16 nM
- IC50 (curve of first compound, second compound 10 µM): < 3.16 nM
Structure (SMILES): Nc1ccn(C2OC(CO)C(O)C2(F)F)c(=O)n1 (stereo not given) + C#Cc1c(F)ccc2cc(O)cc(-c3ncc4c(N5CC6CCC(C5)N6)nc(OCC56CCCN5CC(F)C6)nc4c3F)c12
- viability, T/C (second compound 0.0316 µM, first compound 0.00316 µM): 84.9%
- viability, T/C (second compound 0.0316 µM, first compound 0.01 µM): 105%
- viability, T/C (second compound 0.0316 µM, first compound 0.0316 µM): 71.6%
- viability, T/C (second compound 0.0316 µM, first compound 0.1 µM): 48.5%
- viability, T/C (second compound 0.0316 µM, first compound 0.316 µM): 41.8%
- viability, T/C (second compound 0.0316 µM, first compound 1 µM): 30.9%
- viability, T/C (second compound 0.1 µM, first compound 0.00316 µM): 75.7%
- viability, T/C (second compound 0.1 µM, first compound 0.01 µM): 88.7%
- viability, T/C (second compound 0.1 µM, first compound 0.0316 µM): 70.6%
- viability, T/C (second compound 0.1 µM, first compound 0.1 µM): 54.7%
- viability, T/C (second compound 0.1 µM, first compound 0.316 µM): 51.6%
- viability, T/C (second compound 0.1 µM, first compound 1 µM): 39.8%
- viability, T/C (second compound 0.316 µM, first compound 0.00316 µM): 64%
- viability, T/C (second compound 0.316 µM, first compound 0.01 µM): 71.1%
- viability, T/C (second compound 0.316 µM, first compound 0.0316 µM): 49.4%
- viability, T/C (second compound 0.316 µM, first compound 0.1 µM): 52.1%
- viability, T/C (second compound 0.316 µM, first compound 0.316 µM): 49.8%
- viability, T/C (second compound 0.316 µM, first compound 1 µM): 44%
- viability, T/C (second compound 1 µM, first compound 0.00316 µM): 56.2%
- viability, T/C (second compound 1 µM, first compound 0.01 µM): 55.5%
- viability, T/C (second compound 1 µM, first compound 0.0316 µM): 40.8%
- viability, T/C (second compound 1 µM, first compound 0.1 µM): 41.4%
- viability, T/C (second compound 1 µM, first compound 0.316 µM): 45.7%
- viability, T/C (second compound 1 µM, first compound 1 µM): 41.9%
- viability, T/C (second compound 3.16 µM, first compound 0.00316 µM): 38.6%
- viability, T/C (second compound 3.16 µM, first compound 0.01 µM): 55.4%
- viability, T/C (second compound 3.16 µM, first compound 0.0316 µM): 50.8%
- viability, T/C (second compound 3.16 µM, first compound 0.1 µM): 36.5%
- viability, T/C (second compound 3.16 µM, first compound 0.316 µM): 39%
- viability, T/C (second compound 3.16 µM, first compound 1 µM): 36.2%
- viability, T/C (second compound 10 µM, first compound 0.00316 µM): 42.3%
- viability, T/C (second compound 10 µM, first compound 0.01 µM): 53.9%
- viability, T/C (second compound 10 µM, first compound 0.0316 µM): 48.9%
- viability, T/C (second compound 10 µM, first compound 0.1 µM): 38.3%
- viability, T/C (second compound 10 µM, first compound 0.316 µM): 34.1%
- viability, T/C (second compound 10 µM, first compound 1 µM): 30.7%
